Reference: patent US9346778B2, “Carbofluorescein lactone ion indicators and their applications” (AAT Bioquest, Inc., priority 2007, dated 2016)
Entries after “also recorded” stand apart in the source; their conditions may differ.

Columns and labels:
[1] = Spectral property comparison (excitation and emission wavelength) of indicator acids; assay type: physicochemical
Description: The red-shift excitation and emission wavelengths provide a great advantage for the use of current invention in the high throughput screening of new drug candidates since there are many fluorescent compounds of short wavelength in the screening compound libraries. Fluo-3 AM and Fluo-4 AM are currently used in the high throughput screening of new drug candidates, but their short wavelength overlap with the fluorescence of some fluorescent compounds in the screening compound libraries, causing severe interference.

[2] = system: CHO cells; test: Cell-induced absorption spectral shift of indicator AM esters, absence vs presence of CHO cells; assay type: cell-based; conditions: for Cell-Induced Excitation Wavelength Shift (nm): absence vs presence of CHO cells
Description: (§1) FIG. 7. The cell-induced absorption spectral shift comparison of Fluo-3 AM and Compound 16. The absorption spectra are normalized at their maximum absorption peak. Solid lines represent the absorption spectra of Compound 16 in the absence of CHO cells (left) and in the presence of CHO cells (right) respectively. Dot lines represent the absorption spectra of Fluo-3 AM in the absence of CHO cells (left) and in the presence of CHO cells (right) respectively.
as §1, with “8.” for “7.”, “Fluo-4” for “Fluo-3”, “85.” for “16.”, “85” for “16”
Fluo-3 AM and Fluo-4 AM are predominantly used for monitoring intracellular calcium signal. However, Fluo-3 AM, Fluo-4 AM and their cell-hydrolyzed products (Fluo-3 and Fluo-4) can be simultaneously excited by the same excitation source (see FIGS. 7 and 8), causing high assay background. The present application is directed to a family of fluorescent dyes that are useful for preparing fluorescent metal ion indicators. The indicators include a carbofluorescein lactone fluorophore that is incorporated with an ionophore, and are useful for the detection, discrimination and quantification of metal cations.
In one aspect of the invention, the disclosed calcium indicators have the minimal assay background in their masked form since their non-hydrolyzed AM esters cannot be excited in the range of visible wavelengths. […] The fluorescence outside cells generates the detrimental assay background. It is evident that the calcium indicators of the invention (e.g., Compound 16) have unexpected spectral properties that enable more sensitive detection of calcium in cells compared to the existing fluorescein-based calcium indicators (such as Fluo-3 AM).
It is evident that the calcium indicators of the invention (e.g., Compound 85) have unexpected spectral properties that enable more sensitive detection of calcium in cells compared to the existing fluorescein-based calcium indicators (such as Fluo-4 AM).

[3] = Calcium response of indicator measured in fluorescence excitation/emission in PBS buffer; assay type: binding; conditions: 5 μM in PBS buffer, excited at 555 nm
Procedure: FIG. 5. Calcium responses of Compound 79 (5 μM) measured in fluorescence excitation in PBS buffer solution. The calcium concentrations are indicated in the graph in the unit of μM.
FIG. 6. Calcium responses of Compound 79 (5 μM) measured in fluorescence emission in PBS buffer solution. The calcium concentrations are indicated in the graph in the unit of μM.

[4] = system: CHO cells stably transfected with muscarinic receptor 1; test: Calcium flux assay in cells loaded with indicator AM ester, ATP stimulation, microplate reader or imaging; assay type: cell-based; conditions: compared with Fluo-4 AM
Procedure: In yet another aspect of the invention, the fluorescent ion indicators are used in a method to measure calcium flux. Cells (e.g., CHO cells) stably transfected with muscarinic receptor 1 are plated—e.g., at 60,000 cells per 100 μl per well in F12 with 5% FBS and 1% glutamine in a 96-well black wall/clear bottom Costar plate—and incubated (e.g., in 5% CO2 at 37° C. overnight). The growth medium is removed and the cells are incubated with a fluorescent ion indicator (e.g., with 100 μl/well of 1-8 μM Fluo-4 AM or Compound 85 in Hanks and HEPES buffer for 1 hour at room temperature) with or without probenecid. […]
Calcium flux assays are preferred methods in drug discovery for screening G protein coupled receptors (GPCR). The fluorescent indicators of the invention provide a homogeneous fluorescence-based assay for detecting the intracellular calcium mobilization. […] When the sample cells are stimulated with screening compounds, the receptor triggers a release of intracellular calcium, which then greatly increases the fluorescence of the intracellular indicators. The combination of long wavelength fluorescence properties, high sensitivity, and often a >100 times increase in fluorescence upon binding with calcium makes the disclosed indicators well-suited for measurement of cellular calcium. […]

## Cc1ccc(N(CC(=O)O)CC(=O)O)c(OCCOc2cc(C3=C4C=C(Cl)C(=O)C=C4C(C)(C)c4cc(O)c(Cl)cc43)c(C(=O)O)cc2N(CC(=O)O)CC(=O)O)c1 [Compound 11]
[1]
  Emission Wavelength (nm): 584 nm
  Excitation Wavelength (nm): 558 nm

## CC(=O)OCOC(=O)CN(CC(=O)OCOC(C)=O)c1ccc(C)cc1OCCOc1cc2c(cc1N(CC(=O)OCOC(C)=O)CC(=O)OCOC(C)=O)C(=O)OC21c2cc(Cl)c(OC(C)=O)cc2C(C)(C)c2cc(OC(C)=O)c(Cl)cc21 [Compound 16]
[2]
  Residual absorption of dye AM at the maximum excitation of dye acid: 0%
  Cell-Induced Excitation Wavelength Shift (nm): 278 nm
[2]; at 555 nm
  absorption of masked AM form at excitation wavelength: essentially no absorption

## Cc1ccc(N(CC(=O)O)CC(=O)O)c(OCCOc2cc(C3=C4C=C(F)C(=O)C=C4C(C)(C)c4cc(O)c(F)cc43)c(C(=O)O)cc2N(CC(=O)O)CC(=O)O)c1 [Compound 79]
[3]
  calcium binding: binds calcium
[1]
  Emission Wavelength (nm): 582 nm
  Excitation Wavelength (nm): 554 nm

## CC(=O)OCOC(=O)CN(CC(=O)OCOC(C)=O)c1ccc(C)cc1OCCOc1cc2c(cc1N(CC(=O)OCOC(C)=O)CC(=O)OCOC(C)=O)C(=O)OC21c2cc(F)c(OC(C)=O)cc2C(C)(C)c2cc(OC(C)=O)c(F)cc21 [Compound 85]
[4]; absence of probenecid
  fluorescence intensity enhancement upon calcium stimulation: much greater than that of Fluo-4 AM; also recorded: better fluorescence intensity enhancement upon calcium stimulation than that of Fluo-4 AM
[4]
  loading into cells: load into cells much better than Fluo-4 AM
[2]
  Residual absorption of dye AM at the maximum excitation of dye acid: 0%
  Cell-Induced Excitation Wavelength Shift (nm): 277 nm
[2]; at 555 nm
  absorption of masked AM form at excitation wavelength: essentially no absorption

## CC(=O)OCOC(=O)CN(CC(=O)OCOC(C)=O)c1ccc(C)cc1OCCOc1cc(-c2c3cc(Cl)c(=O)cc-3oc3cc(OCOC(C)=O)c(Cl)cc23)ccc1N(CC(=O)OCOC(C)=O)CC(=O)OCOC(C)=O [Fluo-3 AM, reference compound]
[2]
  Residual absorption of dye AM at the maximum excitation of dye acid: 7.6%
  Cell-Induced Excitation Wavelength Shift (nm): 36 nm
[2]; at 488 nm
  absorption of masked AM form at excitation wavelength: substantial absorption

## Cc1ccc(N(CC(=O)O)CC(=O)O)c(OCCOc2cc(-c3c4cc(Cl)c(=O)cc-4oc4cc(O)c(Cl)cc34)ccc2N(CC(=O)O)CC(=O)O)c1 [Fluo-3, reference compound]
[1]
  Emission Wavelength (nm): 526 nm
  Excitation Wavelength (nm): 504 nm

## CC(=O)OCOC(=O)CN(CC(=O)OCOC(C)=O)c1ccc(C)cc1OCCOc1cc(-c2c3cc(F)c(=O)cc-3oc3cc(OCOC(C)=O)c(F)cc23)ccc1N(CC(=O)OCOC(C)=O)CC(=O)OCOC(C)=O [Fluo-4 AM, reference compound]
[2]
  Residual absorption of dye AM at the maximum excitation of dye acid: 7.8%
  Cell-Induced Excitation Wavelength Shift (nm): 38 nm
[2]; at 488 nm
  absorption of masked AM form at excitation wavelength: substantial absorption

## Cc1ccc(N(CC(=O)O)CC(=O)O)c(OCCOc2cc(-c3c4cc(F)c(=O)cc-4oc4cc(O)c(F)cc34)ccc2N(CC(=O)O)CC(=O)O)c1 [Fluo-4, reference compound]
[1]
  Emission Wavelength (nm): 515 nm
  Excitation Wavelength (nm): 493 nm
